Reference: ChEMBL document CHEMBL5050851, “Compounds that induce ferroptic cell death” (2020)

Experiments:
ES-2 = experiment: Antiproliferative activity against human ES2 cells assessed as cell death after 72 hrs by Alamar blue viability assay; assay type: functional, cell-based; conditions: ES-2, 72 h
HCT-116 = experiment: Antiproliferative activity against human HCT-116 cells assessed as cell death after 72 hrs by Alamar blue viability assay; assay type: functional, cell-based; conditions: HCT-116, 72 h

| SMILES | IC50 (ES-2) | IC50 (HCT-116) |
| --- | --- | --- |
| CC1=CC(C)=[N+]2C1=Cc1ccc(CCC(=O)NCCCn3cc(CN4C(=O)C5CC=C([C@@H]6C[C@@H](OC(=O)CCl)[C@]7(C)[C@H](C)CC[C@]8(C[C@H](O)C(=O)[C@]87O)[C@H]6C)CC5C4=O)nn3)n1[B-]2(F)F (some centres undefined) | 5.3 µM | 14.2 µM |
| CC1=CC(C)=[N+]2C1=Cc1ccc(CCC(=O)NCCCn3cc(CN4C(=O)C5CC=C([C@@H]6C[C@@H](OC(=O)CI)[C@]7(C)[C@H](C)CC[C@]8(C[C@H](O)C(=O)[C@]87O)[C@H]6C)CC5C4=O)nn3)n1[B-]2(F)F (some centres undefined) | 1.5 µM | 15.7 µM |
| CC(=O)O[C@H]1C[C@@]23CC[C@@H](C)[C@@](C)([C@H](OC(=O)CCl)C[C@@H](C4=CCn5c(=O)n(-c6ccccc6)c(=O)n5C4)[C@@H]2C)[C@]3(O)C1=O | 1.4 µM | 3.9 µM |
| C[C@@H]1CC[C@@]23C[C@H](O)C(=O)[C@@]2(O)[C@]1(C)[C@H](OC(=O)CI)C[C@@H](C1=CCn2c(=O)n(-c4ccccc4)c(=O)n2C1)[C@@H]3C | 0.24 µM | 0.66 µM |
| C#CCN1C(=O)C2CC=C([C@@H]3C[C@@H](OC(=O)CCl)[C@]4(C)[C@H](C)CC[C@]5(C[C@H](O)C(=O)[C@]54O)[C@H]3C)CC2C1=O (some centres undefined) | 4 µM | 10.5 µM |
| CO[C@H]1C[C@@]23CC[C@@H](C)[C@@](C)([C@H](OC(=O)CCl)C[C@@H](C4=CCn5c(=O)n(-c6ccccc6)c(=O)n5C4)[C@@H]2C)[C@]3(O)C1=O | 1.9 µM | 3 µM |
| C[C@@H]1CC[C@@]23C[C@H](O)C(=O)[C@@]2(O)[C@]1(C)[C@H](OC(=O)CF)C[C@@H](C1=CCn2c(=O)n(-c4ccccc4)c(=O)n2C1)[C@@H]3C | 34 µM | > 100 µM |
